Measured values reported in patent publication US11739090B2, “Substituted pyrazlo[3,4-c]pyridines as selective BTK kinase inhibitors” (JUMBO DRUG BANK CO., LTD., priority 2019, dated 2023).

Assays:
Type in all cases: biochemical
BTK = BTK (Homo sapiens (Human), UniProt Q06187); assay: BTK kinase test (33P-ATP filter binding); settings: final ATP 5 μM
Experimental: Experimental Example 1: BTK Kinase Test […]
(§1) buffer conditions: 20 mM HEPES (pH 7.5), 10 mM MgCl2, 1 mM EGTA, 0.02% Brij35, 0.02 mg/mL BSA, 0.1 mm Na3VO4, 2 mm DTT, 1% DMSO.
(§2) 2.1. Preparing an indicator substrate in a freshly prepared reaction buffer
(§3) 2.2. Delivering the desired cofactor to the above substrate solution
(§4) 2.3. Delivering the indicated kinase to the substrate solution and gently mixing same
(§5) 2.4. Delivering the compounds in DMSO to the kinase reaction mixture using acoustic technology (Echo550)
2.5. Initiating the reaction (final concentration of ATP: 5 μM) by delivering ^33P-ATP (final specific activity: 0.01 μci/μL) to the reaction mixture
(§6) 2.6. Incubating the kinase reaction at room temperature for 120 minutes
(§7) 2.7. Recording the reaction on P81 ion exchange paper (Whatman #3698-915)
(§8) 2.8. Washing the filter widely with 0.75% phosphoric acid
2.9. Measuring the radioactive phosphorylated substrate remaining on the filter paper. […]
the kinase activity data is expressed as the percentage of the remaining kinase activity in a test sample compared to a reaction with a carrier (dimethyl sulfoxide), and IC50 values and curve fitting are obtained using Prism4 software (GraphPad).

EGFR = EGFR (Homo sapiens (Human), UniProt P00533); assay: EGFR kinase test (33P-ATP filter binding); settings: for The ratio of the activities of EGFR and BTK: EGFR IC50 / BTK IC50 (first figure of the cell); for IC50: final ATP 2 μM, 120 minutes at room temperature
Sequence of EGFR (P00533 25-1210): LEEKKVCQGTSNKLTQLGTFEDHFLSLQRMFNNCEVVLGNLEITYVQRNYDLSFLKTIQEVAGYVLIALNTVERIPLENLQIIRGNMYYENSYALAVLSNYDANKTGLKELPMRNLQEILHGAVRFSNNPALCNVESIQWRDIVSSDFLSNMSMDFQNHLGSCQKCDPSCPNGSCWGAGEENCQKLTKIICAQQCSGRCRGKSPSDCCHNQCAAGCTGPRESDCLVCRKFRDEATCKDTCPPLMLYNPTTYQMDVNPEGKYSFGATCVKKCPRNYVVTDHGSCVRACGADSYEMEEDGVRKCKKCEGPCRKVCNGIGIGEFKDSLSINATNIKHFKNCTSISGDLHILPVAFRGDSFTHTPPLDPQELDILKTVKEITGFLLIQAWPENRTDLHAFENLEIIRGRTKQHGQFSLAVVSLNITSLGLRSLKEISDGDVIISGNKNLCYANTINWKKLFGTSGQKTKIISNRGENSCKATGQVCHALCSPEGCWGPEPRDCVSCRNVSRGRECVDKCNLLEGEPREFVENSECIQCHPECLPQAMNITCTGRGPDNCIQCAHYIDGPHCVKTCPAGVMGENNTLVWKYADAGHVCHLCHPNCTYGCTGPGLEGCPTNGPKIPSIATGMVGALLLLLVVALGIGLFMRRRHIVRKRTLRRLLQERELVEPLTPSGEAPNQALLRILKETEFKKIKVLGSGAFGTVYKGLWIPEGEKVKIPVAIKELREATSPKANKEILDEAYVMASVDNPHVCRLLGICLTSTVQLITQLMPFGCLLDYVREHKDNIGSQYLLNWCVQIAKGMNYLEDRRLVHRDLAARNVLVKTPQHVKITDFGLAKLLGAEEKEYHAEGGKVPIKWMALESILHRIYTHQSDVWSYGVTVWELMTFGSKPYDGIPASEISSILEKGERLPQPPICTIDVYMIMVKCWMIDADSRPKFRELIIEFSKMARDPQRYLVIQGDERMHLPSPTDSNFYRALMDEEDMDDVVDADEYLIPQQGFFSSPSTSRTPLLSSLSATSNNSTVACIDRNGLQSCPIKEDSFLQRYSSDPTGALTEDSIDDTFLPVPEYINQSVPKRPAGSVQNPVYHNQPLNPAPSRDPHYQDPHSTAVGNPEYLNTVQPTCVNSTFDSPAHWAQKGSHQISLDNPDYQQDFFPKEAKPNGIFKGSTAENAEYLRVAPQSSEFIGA
Experimental: (§9) Experimental Example 2: EGFR, ITK and TEC Kinase Test
as §1, §2, §3, §4, §5
(§10) 2.5. Initiating the reaction (final concentration of ATP: 2 μM, 5 μM and 5 μM respectively) by delivering ^33P-ATP (final specific activity: 0.01 μci/μL) to the reaction mixture
as §6, §7, §8
(§11) 2.9. Measuring the radioactive phosphorylated substrate remaining on the filter paper.
(§12) 3. Data analysis: the kinase activity data is expressed as the percentage of the remaining kinase activity in a test sample compared to a reaction with a carrier (dimethyl sulfoxide), and IC50 values and curve fitting are obtained using Prism4 software (GraphPad).

ITK = ITK (Homo sapiens (Human), UniProt Q08881); assay: ITK kinase test (33P-ATP filter binding); settings: for The ratio of the activities of ITK and BTK: ITK IC50 / BTK IC50 (second figure of the cell); for IC50: final ATP 5 μM
Sequence of ITK (Q08881 whole entry): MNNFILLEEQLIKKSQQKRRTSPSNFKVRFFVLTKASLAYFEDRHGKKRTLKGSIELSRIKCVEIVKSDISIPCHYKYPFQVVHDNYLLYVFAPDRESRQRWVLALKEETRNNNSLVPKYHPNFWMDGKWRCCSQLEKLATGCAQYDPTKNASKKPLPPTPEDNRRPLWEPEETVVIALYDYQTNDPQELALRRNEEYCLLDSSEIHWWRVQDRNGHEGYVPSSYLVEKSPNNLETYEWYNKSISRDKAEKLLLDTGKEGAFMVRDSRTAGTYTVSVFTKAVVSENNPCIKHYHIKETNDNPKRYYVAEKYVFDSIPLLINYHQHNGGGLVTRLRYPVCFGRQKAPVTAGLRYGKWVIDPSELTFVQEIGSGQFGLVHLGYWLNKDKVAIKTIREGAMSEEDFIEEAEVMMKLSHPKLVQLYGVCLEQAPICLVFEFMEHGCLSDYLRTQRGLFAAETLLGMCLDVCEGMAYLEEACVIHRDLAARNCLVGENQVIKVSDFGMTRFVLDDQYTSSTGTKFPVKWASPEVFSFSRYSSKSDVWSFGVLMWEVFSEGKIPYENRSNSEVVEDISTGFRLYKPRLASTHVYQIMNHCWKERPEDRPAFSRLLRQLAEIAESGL
Experimental: as §9, §1, §2, §3, §4, §5, §10, §6, §7, §8, §11, §12

TEC = TEC (Homo sapiens (Human), UniProt P42680); assay: TEC kinase test (33P-ATP filter binding); settings: for The ratio of the activities of TEC and BTK: TEC IC50 / BTK IC50 (third figure of the cell); for IC50: final ATP 5 μM, 120 minutes at room temperature
Sequence of TEC (P42680 whole entry): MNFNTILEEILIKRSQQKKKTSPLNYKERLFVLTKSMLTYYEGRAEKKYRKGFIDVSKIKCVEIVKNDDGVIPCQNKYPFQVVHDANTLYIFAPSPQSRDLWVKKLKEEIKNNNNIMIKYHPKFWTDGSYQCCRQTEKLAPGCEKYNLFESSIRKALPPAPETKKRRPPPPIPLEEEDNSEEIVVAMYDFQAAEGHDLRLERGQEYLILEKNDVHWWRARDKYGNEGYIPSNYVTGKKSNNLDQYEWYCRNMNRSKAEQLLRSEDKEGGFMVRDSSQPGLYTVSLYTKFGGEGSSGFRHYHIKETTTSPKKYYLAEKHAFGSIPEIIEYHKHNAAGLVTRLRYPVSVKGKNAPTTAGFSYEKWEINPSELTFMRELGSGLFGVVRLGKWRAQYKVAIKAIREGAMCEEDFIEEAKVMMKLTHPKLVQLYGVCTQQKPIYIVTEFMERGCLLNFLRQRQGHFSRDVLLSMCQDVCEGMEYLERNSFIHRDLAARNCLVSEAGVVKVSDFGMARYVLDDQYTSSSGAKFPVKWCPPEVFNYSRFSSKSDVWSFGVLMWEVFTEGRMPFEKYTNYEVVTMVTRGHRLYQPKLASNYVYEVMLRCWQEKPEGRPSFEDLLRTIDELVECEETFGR
Experimental: as §9, §1, §2, §3, §4, §5, §10, §6, §7, §8, §11, §12

[1] = Table 1, 120 minutes at room temperature

Sequence of BTK (Q06187 whole entry): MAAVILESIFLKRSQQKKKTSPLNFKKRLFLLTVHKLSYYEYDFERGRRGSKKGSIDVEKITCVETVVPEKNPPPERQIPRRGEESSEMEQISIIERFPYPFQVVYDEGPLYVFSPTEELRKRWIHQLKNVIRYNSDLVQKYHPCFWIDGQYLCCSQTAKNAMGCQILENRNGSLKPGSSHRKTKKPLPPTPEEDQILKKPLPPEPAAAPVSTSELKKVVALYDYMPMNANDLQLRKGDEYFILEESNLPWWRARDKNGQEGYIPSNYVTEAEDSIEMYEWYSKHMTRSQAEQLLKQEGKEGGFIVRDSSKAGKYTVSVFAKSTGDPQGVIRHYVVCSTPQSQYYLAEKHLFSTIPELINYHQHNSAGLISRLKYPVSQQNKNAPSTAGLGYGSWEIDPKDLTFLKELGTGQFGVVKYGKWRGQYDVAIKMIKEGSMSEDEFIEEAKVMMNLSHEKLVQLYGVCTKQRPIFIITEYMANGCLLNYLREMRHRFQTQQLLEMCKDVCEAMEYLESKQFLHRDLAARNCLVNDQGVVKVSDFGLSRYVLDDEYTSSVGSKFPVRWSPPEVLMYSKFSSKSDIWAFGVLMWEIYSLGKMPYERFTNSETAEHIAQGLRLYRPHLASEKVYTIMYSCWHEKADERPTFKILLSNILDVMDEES

For `C=CC(=O)N1CCO[C@@H](c2nn(-c3ccc(Oc4c(F)cccc4F)cc3)c3cncc(F)c23)C1` [Compound 3A], the IC50 (BTK; [1]) was 9.58 nM.
For `C=CC(=O)N1CCC[C@H](c2nn(-c3ccc(Oc4cc(F)cc(F)c4F)cc3)c3cncc(F)c23)C1` (single isomer, unassigned) [Compound 4B], the IC50 (BTK; [1]) was 98.1 nM.
In the case of `C=CC(=O)N1CCC[C@@H](c2nn(-c3ccc(Oc4cccc(F)c4F)cc3)c3cncc(F)c23)C1` (single isomer, unassigned) [Compound 5A], the IC50 (BTK; [1]) is reported as 31.8 nM.
`C=CC(=O)N1CCC[C@@H](c2nn(-c3ccc(Oc4cc(F)cc(F)c4F)cc3)c3cncc(F)c23)C1` (single isomer, unassigned) [Compound 4A] was tested, and the IC50 (BTK; [1]) was 11 nM, the IC50 (BTK; Table 2 comparison) was 11 nM and the “The ratio of the activities of EGFR and BTK” value (EGFR) was 183 fold. The IC50 (EGFR) was 2020 nM, the “The ratio of the activities of ITK and BTK” value (ITK) was > 909 fold and the IC50 (ITK; unit μM) was > 10 µM. The “The ratio of the activities of TEC and BTK” value (TEC) was “fold, 15-fold” and the IC50 (TEC) was 169 nM.
`C=CC(=O)N1CCO[C@H](c2nn(-c3ccc(Oc4c(F)cccc4F)cc3)c3cncc(F)c23)C1` [Compound 3B] gave an IC50 (BTK; [1]) of 2.7 nM.
For `C=CC(=O)N1CCC[C@@H](c2nn(-c3ccc(Oc4cc(F)ccc4F)cc3)c3cncc(F)c23)C1` [Compound 6A], the IC50 (BTK; [1]) was 9.58 nM, the IC50 (BTK; Table 2 comparison) was 9.58 nM and the “The ratio of the activities of EGFR and BTK” value (EGFR) was 84 fold. For the same molecule, the IC50 (EGFR) was 812 nM, the “The ratio of the activities of ITK and BTK” value (ITK) was 764 fold and the IC50 (ITK; 120 minutes at room temperature) was 7.32 µM. For the same molecule, the “The ratio of the activities of TEC and BTK” value (TEC) was 4-fold and the IC50 (TEC) was 43.2 nM.
For `C=CC(=O)N1CCC[C@H](c2nn(-c3ccc(Oc4cc(F)ccc4F)cc3)c3cncc(F)c23)C1` [Compound 6B], the IC50 (BTK; [1]) was 140 nM.
